The record followed here is PMC5908474 (European journal of medicinal chemistry, 2018).

One test has as its target recombinant human S1PR3 (Homo sapiens, UniProt Q99500). Nature of the test: [32P]S1P competitive binding assay, S1PR3.
For the next test, the target named is recombinant human S1PR1 (Homo sapiens, UniProt P21453). As to the kind of experiment: [32P]S1P competitive binding assay, S1PR1. To be noted: for IC50: mean ± SD, CHO cell membrane, recombinant human S1PR1, 0.1 nM [32P]S1P; for fold increased S1PR1 IC50 value compared to compound 4: vs compound 4 (2.6 nM).
recombinant human S1PR1, sequence (P21453 whole entry): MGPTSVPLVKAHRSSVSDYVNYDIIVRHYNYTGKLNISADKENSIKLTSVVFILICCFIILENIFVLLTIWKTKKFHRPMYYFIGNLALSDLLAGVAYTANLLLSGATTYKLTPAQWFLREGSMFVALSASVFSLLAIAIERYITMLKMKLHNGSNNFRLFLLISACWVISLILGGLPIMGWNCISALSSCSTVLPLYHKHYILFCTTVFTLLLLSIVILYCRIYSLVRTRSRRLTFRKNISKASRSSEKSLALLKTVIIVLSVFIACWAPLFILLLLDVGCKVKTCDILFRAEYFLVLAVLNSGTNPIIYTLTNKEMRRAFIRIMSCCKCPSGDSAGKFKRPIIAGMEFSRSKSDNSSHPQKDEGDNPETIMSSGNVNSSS
A further test deals with recombinant human S1PR2 (Homo sapiens, UniProt O95136). Nature of the test: [32P]S1P competitive binding assay, S1PR2.
recombinant human S1PR2, sequence (O95136 whole entry): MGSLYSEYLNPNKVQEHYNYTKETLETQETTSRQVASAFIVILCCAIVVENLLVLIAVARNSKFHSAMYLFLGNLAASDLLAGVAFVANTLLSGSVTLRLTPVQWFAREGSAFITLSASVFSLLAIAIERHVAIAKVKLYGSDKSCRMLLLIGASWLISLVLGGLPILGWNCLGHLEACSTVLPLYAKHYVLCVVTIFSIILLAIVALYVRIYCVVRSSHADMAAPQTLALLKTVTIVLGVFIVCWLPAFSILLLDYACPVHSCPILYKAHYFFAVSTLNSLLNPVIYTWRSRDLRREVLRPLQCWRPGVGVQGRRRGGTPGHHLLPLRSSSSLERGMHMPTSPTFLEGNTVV
A further test deals with recombinant human S1PR5 (Homo sapiens, UniProt Q9H228). As to the kind of experiment: [32P]S1P competitive binding assay, S1PR5.
recombinant human S1PR5, sequence (Q9H228 whole entry): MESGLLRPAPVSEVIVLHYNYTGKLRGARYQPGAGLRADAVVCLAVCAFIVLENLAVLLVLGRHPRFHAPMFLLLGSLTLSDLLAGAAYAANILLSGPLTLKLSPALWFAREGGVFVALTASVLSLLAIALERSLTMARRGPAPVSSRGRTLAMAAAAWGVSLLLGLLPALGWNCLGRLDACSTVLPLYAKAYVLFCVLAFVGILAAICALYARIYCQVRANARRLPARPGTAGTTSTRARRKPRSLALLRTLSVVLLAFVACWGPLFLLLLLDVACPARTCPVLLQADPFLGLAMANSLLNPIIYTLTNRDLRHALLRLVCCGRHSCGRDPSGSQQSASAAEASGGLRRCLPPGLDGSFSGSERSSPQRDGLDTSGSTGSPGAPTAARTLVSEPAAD
Another test deals with T1, recombinant human S1PR4 (Homo sapiens, UniProt O95977).
T1 sequence (O95977 1-384): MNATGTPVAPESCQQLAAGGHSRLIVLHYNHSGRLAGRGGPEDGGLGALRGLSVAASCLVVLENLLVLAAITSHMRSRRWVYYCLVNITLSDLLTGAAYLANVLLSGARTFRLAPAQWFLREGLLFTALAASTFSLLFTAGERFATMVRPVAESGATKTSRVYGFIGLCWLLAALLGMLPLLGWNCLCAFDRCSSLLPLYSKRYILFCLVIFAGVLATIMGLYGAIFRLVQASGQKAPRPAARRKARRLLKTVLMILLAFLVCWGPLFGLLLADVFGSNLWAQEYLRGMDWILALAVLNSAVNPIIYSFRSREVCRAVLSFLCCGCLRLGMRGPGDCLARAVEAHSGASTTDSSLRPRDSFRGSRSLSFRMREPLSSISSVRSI
Nature of the test: [32P]S1P competitive binding assay, S1PR4.

Where two headings read alike, the source gives them in different places.

recombinant human S1PR3, sequence (Q99500 whole entry): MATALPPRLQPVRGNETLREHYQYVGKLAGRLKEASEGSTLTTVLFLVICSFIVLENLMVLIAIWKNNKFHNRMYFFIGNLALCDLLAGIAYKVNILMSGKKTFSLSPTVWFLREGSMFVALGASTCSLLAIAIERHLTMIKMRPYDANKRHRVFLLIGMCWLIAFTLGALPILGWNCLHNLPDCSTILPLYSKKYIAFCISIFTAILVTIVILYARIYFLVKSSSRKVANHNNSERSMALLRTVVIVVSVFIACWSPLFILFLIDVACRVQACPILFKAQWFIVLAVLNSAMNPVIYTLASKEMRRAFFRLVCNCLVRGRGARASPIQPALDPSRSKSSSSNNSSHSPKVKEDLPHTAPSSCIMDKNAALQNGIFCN

Consider `NNC(=O)c1ccc(-c2noc(-c3ccc(OCCF)c(C(F)(F)F)c3)n2)cc1` [10c, 4-(5-(4-(2-Fluoroethoxy)-3-(trifluoromethyl)phenyl)-1,2,4-oxadiazol-3-yl)benzohydrazide], for which the IC50 on recombinant human S1PR3 and on recombinant human S1PR2 was above 1000 nM throughout. Moreover, at recombinant human S1PR1 (vs benzamide 9b), the “fold decreased S1PR1 IC50 value compared to compound 9b” value is 5 fold.

Regarding `O=C(O)c1ccc(-c2noc(-c3ccc(OCCF)c(C(F)(F)F)c3)n2)cc1` [10a, 4-(5-(4-(2-Fluoroethoxy)-3-(trifluoromethyl)phenyl)-1,2,4-oxadiazol-3-yl)benzoic acid], the IC50 on recombinant human S1PR1 (S1PR1 IC50 (nM)) was above 1000 nM.

In the case of `NCCOCc1ccc(-c2noc(-c3ccc(OCCF)c(C(F)(F)F)c3)n2)cc1` [21b, 2-((4-(5-(4-(2-Fluoroethoxy)-3-(trifluoromethyl)phenyl)-1,2,4-oxadiazol-3-yl)benzyl)oxy)ethan-1-amine], the IC50 at recombinant human S1PR1 (S1PR1 IC50 (nM)) amounted to 44.2 ± 6.8 nM.

On to `O=C(O)CCNCc1ccc(-c2noc(-c3ccc(OCCF)c(C(F)(F)F)c3)n2)cc1` [16b, 3-((4-(5-(4-(2-Fluoroethoxy)-3-(trifluoromethyl)phenyl)-1,2,4-oxadiazol-3-yl)benzyl)amino)propanoic acid], for which the IC50 is above 1000 nM at recombinant human S1PR5; above 1000 nM on recombinant human S1PR4; above 1000 nM at recombinant human S1PR3; 6.3 ± 1.3 nM at recombinant human S1PR1 (S1PR1 IC50 (nM)); above 1000 nM at recombinant human S1PR2.

Turning to `O=C(NO)c1ccc(-c2noc(-c3ccc(OCCF)c(C(F)(F)F)c3)n2)cc1` [10b, 4-(5-(4-(2-Fluoroethoxy)-3-(trifluoromethyl)phenyl)-1,2,4-oxadiazol-3-yl)-N-hydroxybenzamide], the “fold increased S1PR1 IC50 value compared to compound 9b” value at recombinant human S1PR1 (vs benzamide 9b) is 4 fold.

For `O=C(O)CNCc1ccc(-c2noc(-c3ccc(OCCF)c(C(F)(F)F)c3)n2)cc1` [16a, (4-(5-(4-(2-Fluoroethoxy)-3-(trifluoromethyl)phenyl)-1,2,4-oxadiazol-3-yl)benzyl)glycine], the IC50 on recombinant human S1PR1 (S1PR1 IC50 (nM)) turned out to be 99.8 ± 12.2 nM. The “fold increased S1PR1 IC50 value compared to compound 4” value on recombinant human S1PR1 was determined as 38 fold.

For `NS(=O)(=O)c1ccc(-c2noc(-c3ccc(OCCF)c(C(F)(F)F)c3)n2)cc1` [9a, 4-(5-(4-(2-Fluoroethoxy)-3-(trifluoromethyl)phenyl)-1,2,4-oxadiazol-3-yl)benzenesulfonamide], the IC50 at recombinant human S1PR3 and on recombinant human S1PR2 was above 1000 nM in each case.

On to `O=C(O)c1cn(Cc2ccc(-c3noc(-c4ccc(OCCF)c(C(F)(F)F)c4)n3)cc2)nn1` [12a, 1-(4-(5-(4-(2-Fluoroethoxy)-3-(trifluoromethyl)phenyl)-1,2,4-oxadiazol-3-yl)benzyl)-1H-1,2,3-triazole-4-carbox-ylic acid], for which the IC50 at recombinant human S1PR1 (read-out: S1PR1 IC50) is 341 ± 126 nM. Further, the “fold increased S1PR1 IC50 value compared to compound 4” value on recombinant human S1PR1 is 130 fold.

Consider `OCc1cn(Cc2ccc(-c3noc(-c4ccc(OCCF)c(C(F)(F)F)c4)n3)cc2)nn1` [12b, (1-(4-(5-(4-(2-Fluoroethoxy)-3-(trifluoromethyl)phenyl)-1,2,4-oxadiazol-3-yl)benzyl)-1H-1,2,3-triazol-4-yl)met-hanol], for which the IC50 is above 1000 nM at recombinant human S1PR5 (read-out: IC50 (nM) S1PR5, mean ± SD, membranes with recombinant human S1PR5, [32P]S1P); above 1000 nM on recombinant human S1PR4 (read-out: IC50 (nM) S1PR4, mean ± SD, membranes with recombinant human S1PR4, [32P]S1P); above 1000 nM on recombinant human S1PR3 (read-out: IC50 (nM) S1PR3, mean ± SD, membranes with recombinant human S1PR3, [32P]S1P); above 1000 nM at recombinant human S1PR2 (read-out: IC50 (nM) S1PR2, mean ± SD, membranes with recombinant human S1PR2, [32P]S1P). Also, the “selectivity toward S1PR1 over S1PR2-5” value at recombinant human S1PR1 (S1PR1 over S1PR2-5) is recorded as above 100 fold. The “fold decreased S1PR1 IC50 value compared to acid 12a” value on recombinant human S1PR1 (vs 12a (341 nM)) is on record as 35 fold.
